{"source": "patent US20090181904A1", "about": "“METHOD FOR REGULATING NUTRIENT ABSORPTION WITH GINSENOSIDES” (priority 2005, published 2009)", "key": {"Caco-2 cell monolayer [1]": {"system": "Caco-2 cell monolayer", "test": "Arginine absorption assay (transport across Caco-2 monolayer, 3H-arginine)", "type": "cell-based, human", "conditions": "for Transport rate (arginine): 10 mM L-arginine", "method": "(§1) In measuring transport of arginine across the Caco-2 cell monolayer, both sides of the transwells were washed with arginine incubation buffer consisting of: 137 mM NaCl, 10 mM Hepes, 0.3 mM NaH2PO4, 0.3 mM K2HPO4, 5.4 mM KCl, 2.8 mM CaCl2, 1 mM MgSO4, 10 mM glucose, adjusted to pH 7.4. Then, the cell layer was pre-incubated in the incubation buffer at 37° C. for 1 h. The volumes of incubation buffer were 0.2 mL and 0.9 mL in the apical and basolateral chambers, respectively. The cells were replaced with fresh incubation medium in both chambers prior to the transport experiment. The transport experiment was initiated by replacing the incubation solution on the apical side with solution containing 10 mM of L-arginine in which 0.125 μCi/mL of L-[^3H]-arginine was included. At designated time intervals, 10 μL-solution samples were removed from the basolateral side and radioactivity of each sample was counted using a microplate liquid scintillation counter (TopCount, Packard NXT). During the experiment, when a 10 μL-solution sample was removed from the basolateral side every time, 10 μL buffer was supplemented to keep the volume constant. The uptake of [^3H]-mannitol was used to correct for nonspecific transport of molecules across the monolayer membrane. Results were expressed as the nanomoles of arginine transport across the Caco-2 cell monolayers with respect to time in minutes (nmol/min)."}, "Caco-2 cell monolayer [2]": {"system": "Caco-2 cell monolayer", "test": "Tryptophan absorption assay (transport across Caco-2 monolayer)", "type": "cell-based, human", "method": "as §1\nThe experimental procedures similar to those in Example 2 were used for measuring the uptake of tryptophan molecules across the Caco-2 membrane, except using a tryptophan incubation buffer consisting of 137 mM choline chloride, 10 mM Hepes, 0.6 mM KH2PO4, 5.4 mM KCl, 2.8 mM CaCl2, 1 mM MgSO4, and 10 mM glucose, and having its pH adjusted to 7.4. Results were expressed as the nanomoles of tryptophan transport across the Caco-2 cell monolayers with respect to time in minutes (nmol/min)."}}}
{"smiles": "CC(C)=CCC[C@](C)(O[C@@H]1O[C@H](CO)[C@@H](O)[C@H](O)[C@H]1O)[C@H]1CC[C@]2(C)[C@@H]1[C@H](O)C[C@@H]1[C@@]3(C)CC[C@H](O)C(C)(C)[C@@H]3[C@@H](O[C@@H]3O[C@H](CO)[C@@H](O)[C@H](O)[C@H]3O)C[C@]12C", "note": "[Rg1, ginsenoside Rg1]", "values": [{"measurement": "Percentage (arginine transport, control = 100)", "setting": "Caco-2 cell monolayer [1]; compound 0.01 μM", "result": 126.89, "unit": "%"}, {"measurement": "Transport rate (arginine)", "setting": "Caco-2 cell monolayer [1]; compound 0.01 μM", "result": "13.5583 ± 1.1940", "unit": "nmol/min"}, {"measurement": "Percentage (arginine transport, control = 100)", "setting": "Caco-2 cell monolayer [1]; compound 0.1 μM", "result": 210.91, "unit": "%"}, {"measurement": "Transport rate (arginine)", "setting": "Caco-2 cell monolayer [1]; compound 0.1 μM", "result": "22.5370 ± 0.8912", "unit": "nmol/min"}, {"measurement": "Percentage (arginine transport, control = 100)", "setting": "Caco-2 cell monolayer [1]; compound 1 μM", "result": 171.51, "unit": "%"}, {"measurement": "Transport rate (arginine)", "setting": "Caco-2 cell monolayer [1]; compound 1 μM", "result": "18.3265 ± 0.8965", "unit": "nmol/min"}, {"measurement": "* (arrow: regulatory effect on tryptophan transport)", "setting": "Caco-2 cell monolayer [2]; compound 0.001 μM", "result": "↑"}, {"measurement": "Percentage (tryptophan transport, control = 100)", "setting": "Caco-2 cell monolayer [2]; compound 0.001 μM", "result": 130.17, "unit": "%"}, {"measurement": "Transport rate (tryptophan)", "setting": "Caco-2 cell monolayer [2]; compound 0.001 μM", "result": "16.180 ± 2.8700", "unit": "nmol/min"}, {"measurement": "tryptophan transport rate (in words)", "setting": "Caco-2 cell monolayer [2]; compound 0.001 μM to 0.1 μM", "result": "increased"}, {"measurement": "* (arrow: regulatory effect on tryptophan transport)", "setting": "Caco-2 cell monolayer [2]; compound 0.01 μM", "result": "↑"}, {"measurement": "Percentage (tryptophan transport, control = 100)", "setting": "Caco-2 cell monolayer [2]; compound 0.01 μM", "result": 133.47, "unit": "%"}, {"measurement": "Transport rate (tryptophan)", "setting": "Caco-2 cell monolayer [2]; compound 0.01 μM", "result": "16.590 ± 1.4190", "unit": "nmol/min"}, {"measurement": "* (arrow: regulatory effect on tryptophan transport)", "setting": "Caco-2 cell monolayer [2]; compound 0.1 μM", "result": "↑"}, {"measurement": "Percentage (tryptophan transport, control = 100)", "setting": "Caco-2 cell monolayer [2]; compound 0.1 μM", "result": 142.48, "unit": "%"}, {"measurement": "Transport rate (tryptophan)", "setting": "Caco-2 cell monolayer [2]; compound 0.1 μM", "result": "17.710 ± 0.5948", "unit": "nmol/min"}]}
